Reference: patent EP4227307A1 (Genzyme Corporation, priority 2022, dated 2023)
Where a name gives a salt, the structure may show the parent alone.

Target: T1, human recombinant 6His-Nterm SHP2 full-length (Thr2-Arg593) (Homo sapiens, UniProt Q06124)
T1 construct: 6His-Nterm SHP2 full-length (Thr2-Arg593, R&D system); 6His (N); purchased R&D system
T1 sequence (Q06124 2-593): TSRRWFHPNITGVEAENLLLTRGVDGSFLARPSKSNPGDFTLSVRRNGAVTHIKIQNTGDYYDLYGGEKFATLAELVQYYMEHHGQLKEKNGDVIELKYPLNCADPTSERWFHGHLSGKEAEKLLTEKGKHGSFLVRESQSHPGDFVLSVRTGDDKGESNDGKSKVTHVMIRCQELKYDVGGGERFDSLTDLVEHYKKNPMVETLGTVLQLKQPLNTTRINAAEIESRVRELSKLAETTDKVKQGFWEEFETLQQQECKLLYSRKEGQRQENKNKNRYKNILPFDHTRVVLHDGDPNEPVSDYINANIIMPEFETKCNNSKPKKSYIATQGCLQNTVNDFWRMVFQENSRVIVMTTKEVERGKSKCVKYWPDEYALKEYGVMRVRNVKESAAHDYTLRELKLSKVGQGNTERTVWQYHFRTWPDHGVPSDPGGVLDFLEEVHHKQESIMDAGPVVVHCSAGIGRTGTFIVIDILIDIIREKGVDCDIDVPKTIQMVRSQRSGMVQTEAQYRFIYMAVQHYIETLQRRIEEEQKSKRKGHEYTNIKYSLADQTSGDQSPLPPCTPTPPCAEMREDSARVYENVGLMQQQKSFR
Test: SHP2 Phosphatase Assay (DiFMUP fluorescence)
Format: biochemical
Details: SHP2 0.2 nM pre-incubated with 100 nM bi-phosphorylated activating peptide; compound 1000-0.05 nM, 30 min pre-incubation; DiFMUP 20 µM, 45 min, room temperature; 10-concentration dose-response
Procedure, shortened: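 SHP2 (0.2 nM) preactivated ≥10 min with 100 nM bis-phosphorylated peptide, then 30 min with compound (10 concentrations, 1000–0.05 nM) at room temperature, pH 7.2 HEPES buffer with DTT. DiFMUP (20 µM, added solution) reacted 45 min, pervanadate-stopped; fluorescence 350/450 nm. IC50 by 4-parameter logistic fit.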

| IC50 | SMILES |
| --- | --- |
| 4 nM | Cc1nc(N2CCC3(CC2)Cc2ccncc2[C@H]3N)c2ccnn2c1-c1ccccc1F [Compound 134, (7S)-1'-[7-(2-fluorophenyl)-6-methyl-pyrazolo[1,5-a]pyrazin-4-yl]spiro[5,7-dihydrocyclopenta[c]pyridine-6,4'-piperidine]-7-amine] |
| 40 nM | Cc1nc(N2CCC3(CC2)Oc2ncccc2[C@H]3N)c2ccnn2c1-c1cccc(F)c1Cl [Compound 14, (3R)-1'-[7-(2-chloro-3-fluorophenyl)-6-methyl-pyrazolo [1 ,5-a]pyrazin-4-yl]spiro[3H-furo[2,3-b]pyridine-2,4'-piperidine]-3-amine] |
| 146 nM | Cc1nc(N2CCC3(CC2)Cc2c(F)cccc2[C@H]3N)c2ccnn2c1-c1cccc(F)c1F [Compound 94, (1S)-1'-[7-(2,3-difluorophenyl)-6-methyl-pyrazolo[1,5-a]pyrazin-4-yl]-4-fluoro-spiro[indane-2,4'-piperidine]-1-amine formate] |
| 11 nM | Cc1nc(N2CCC3(CC2)Cc2ncccc2[C@H]3N)c2ccnn2c1-c1ccc2ccn(C)c2c1 [Compound 184, (5S)-1'-[6-methyl-7-(1-methylindol-6-yl)pyrazolo[1,5-a]pyrazin-4-yl]spiro[5,7-dihydrocyclopenta[b]pyridine-6,4'-piperidine]-5-amine] |
| 11 nM | COc1cnc2c(c1)[C@@H](N)C1(CCN(c3nc(C)c(-c4cccc(F)c4F)n4nccc34)CC1)C2 [Compound 24, (5S)-1'-[7-(2,3-difluorophenyl)-6-methyl-pyrazolo[1,5-a]pyrazin-4-yl]-3-methoxy-spiro[5,7-dihydrocyclopenta[b]pyridine-6,4'-piperidine]-5-amine] |
| 15 nM | Cc1cc(-c2c(C)nc(N3CCC4(CC3)Cc3ncccc3[C@H]4N)c3ccnn23)n(C)n1 [Compound 44, (5S)-1'-[7-(2,5-dimethylpyrazol-3-yl)-6-methyl-pyrazolo[1,5-a]pyrazin-4-yl]spiro[5,7-dihydrocyclopenta[b]pyridine-6,4'-piperidine]-5-amine] |
| 383 nM | Cc1nc(N2CCC3(CC2)Cc2ncccc2[C@@H]3N)c2ccnn2c1-c1ccccc1F [Compound 136, (5R)-1'-[7-(2-fluorophenyl)-6-methyl-pyrazolo[1,5-a]pyrazin-4-yl]spiro[5,7-dihydrocyclopenta[b]pyridine-6,4'-piperidine]-5-amine] |
| 5 nM | Cc1nc(N2CCC3(CC2)Cc2ncccc2[C@H]3N)c2ccnn2c1-c1cccc(C#N)c1F [Compound 181, 2-fluoro-3-[6-methyl-4-[(5S)-5-aminospiro[5,7-dihydrocyclopenta[b]pyridine-6,4'-piperidine]-1'-yl]pyrazolo[1,5-a]pyrazin-7-yl]benzonitrile] |
| 9 nM | CCn1cc(-c2c(C)nc(N3CCC4(CC3)Cc3cc(OC)ccc3[C@H]4N)c3ccnn23)cn1 [Compound 148, (1S)-1'-[7-(1-ethylpyrazol-4-yl)-6-methyl-pyrazolo[1,5-a]pyrazin-4-yl]-5-methoxy-spiro[indane-2,4'-piperidine]-1-amine] |
| > 1000 nM | Cc1nc(N2CCC3(CC2)Cc2ncccc2[C@H]3N)c2ccnn2c1-c1cc(C(=O)N(C)C)ccc1F [Compound 172, 4-fluoro-N,N-dimethyl-3-[6-methyl-4-[(5S)-5-aminospiro[5,7-dihydrocyclopenta[b]pyridine-6,4'-piperidine]-1'-yl]pyrazolo[1,5-a]pyrazin-7-yl]benzamide] |
| 8 nM | COc1cc2c(cn1)[C@@H](N)C1(CCN(c3nc(C)c(-c4ccnc(C)c4Cl)n4nccc34)CC1)C2 [Compound 121, (7S)-1'-[7-(3-chloro-2-methyl-4-pyridyl)-6-methyl-pyrazolo[1,5-a]pyrazin-4-yl]-3-methoxy-spiro [5,7-dihydrocyclopenta[c]pyridine-6,4'-piperidine]-7-amine] |
| 6 nM | COc1cc2c(cn1)CC1(CCN(c3nc(C)c(-c4ccnc(C)c4Cl)n4nccc34)CC1)[C@@H]2N [Compound 137, (5S)-1'-[7-(3-chloro-2-methyl-4-pyridyl)-6-methyl-pyrazolo[1,5-a]pyrazin-4-yl]-3-methoxy-spiro[5,7-dihydrocyclopenta[c]pyridine-6,4'-piperidine]-5-amine] |
| 3 nM | Cc1nc(N2CCC3(CC2)Cc2ncccc2[C@H]3N)c2ccnn2c1-c1ccc(F)c2cc[nH]c12 [Compound 208, (5S)-1'-[7-(4-fluoro-1H-indol-7-yl)-6-methyl-pyrazolo[1,5-a]pyrazin-4-yl]spiro[5,7-dihydrocyclopenta[b]pyridine-6,4'-piperidine]-5-amine] |
| 5 nM | Cc1nc(N2CCC3(CC2)Cc2ncccc2[C@H]3N)c2ccnn2c1-c1ccccc1F [Compound 51, (5S)-1'-[7-(2-fluorophenyl)-6-methyl-pyrazolo[1,5-a]pyrazin-4-yl]spiro[5,7-dihydrocyclopenta[b]pyridine-6,4'-piperidine]-5-amine] |
| 7 nM | Cc1nccc(-c2c(C)nc(N3CCC4(CC3)Cc3cccnc3[C@H]4N)c3ccnn23)c1Cl [Compound 13, (7S)-1'-[7-(3-chloro-2-methyl-4-pyridyl)-6-methyl-pyrazolo[1,5-a]pyrazin-4-yl]spiro[5,7-dihydrocyclopenta[b]pyridine-6,4'-piperidine]-7-amine] |
| 15 nM | Cc1nc(N2CCC3(CC2)Cc2ncccc2[C@H]3N)c2ccnn2c1Sc1cccnc1C(F)(F)F [Compound 230, (5S)-1'-(6-methyl-7-((2-(trifluoromethyl)pyridin-3-yl)thio)pyrazolo[1,5-a]pyrazin-4-yl)-5,7-dihydrospiro[cyclopenta[b]pyridine-6,4'-piperidin]-5-amine] |
| 73 nM | Cc1nc(N2CCC3(CC2)Cc2ncccc2[C@H]3N)c2ccnn2c1-c1cscc1C#N [Compound 46, 4-[4-[(5S)-5-aminospiro[5,7-dihydrocyclopenta[b]pyridine-6,4'-piperidine]-1'-yl]-6-methyl-pyrazolo[1,5-a]pyrazin-7-yl]thiophene-3-carbonitrile] |
| 13 nM | COc1cc2c(cn1)CC1(CCN(c3nc(C)c(-c4ccccc4F)n4nccc34)CC1)[C@@H]2N [Compound 131, (5S)-1'-[7-(2-fluorophenyl)-6-methyl-pyrazolo[1,5-a]pyrazin-4-yl] -3-methoxy-spiro [5,7-dihydrocyclopenta[c]pyridine-6,4'-piperidine]-5-amine] |
| 12 nM | COc1cc2c(cn1)CC1(CCN(c3nc(C)c(-c4ccccc4)n4nccc34)CC1)[C@@H]2N [Compound 135, (5S)-3-methoxy-1'-(6-methyl-7-phenyl-pyrazolo[1,5-a]pyrazin-4-yl)spiro[5,7-dihydrocyclopenta[c]pyridine-6,4'-piperidine]-5-amine] |

| SMILES | IC50 |
| --- | --- |
| Cc1c(-c2cnc(N3CCC4(CC3)Cc3ncccc3[C@H]4N)c3ccnn23)cnn1C [Compound 88, (5S)-1'-[7-(1,5-dimethylpyrazol-4-yl)pyrazolo [1,5-a]pyrazin-4-yl]spiro[5,7-dihydrocyclopenta[b]pyridine-6,4'-piperidine] -5-amine hydrochloride] | 346 nM |
| Cc1nc(N2CCC3(CC2)Cc2ncccc2[C@H]3N)c2ccnn2c1-c1ccc2nccnc2c1F [Compound 78, (5S)-1'-[7-(5-fluoroquinoxalin-6-yl)-6-methyl-pyrazolo[1,5-a]pyrazin-4-yl]spiro [5,7-dihydrocyclopenta[b]pyridine-6,4'-piperidine] -5-amine hydrochloride] | 12 nM |
| Cc1nc(N2CCC3(CC2)Cc2ncccc2[C@H]3N)c2c(F)cnn2c1-c1ccccc1 [Compound 143, (5S)-1'-(3-fluoro-6-methyl-7-phenyl-pyrazolo[1,5-a]pyrazin-4-yl)spiro[5,7-dihydrocyclopenta[b]pyridine-6,4'-piperidine]-5-amine hydrochloride] | 39 nM |
| COc1ccc2c(c1)[C@@H](N)C1(CCN(c3nc(C)c(-c4cnn(C)c4Cl)n4nccc34)CC1)C2 [Compound 126, (1S)-1'-[7-(5-chloro-1-methyl-pyrazol-4-yl)-6-methyl-pyrazolo[1,5-a]pyrazin-4-yl] -6-methoxy-spiro[indane-2,4'-piperidine]-1-amine hydrochloride] | 4 nM |
| Cc1nc(N2CCC3(CC2)Cc2ncccc2[C@H]3N)c2ccnn2c1-c1ccncc1 [Compound 70, (5S)-1'-[6-methyl-7-(4-pyridyl)pyrazolo[1,5-a]pyrazin-4-yl]spiro[5,7-dihydrocyclopenta[b]pyridine-6,4'-piperidine]-5-amine hydrochloride] | 73 nM |
| Cc1nccc(-c2c(C)nc(N3CCC4(CC3)Cc3scnc3[C@H]4N)c3ccnn23)c1Cl [Compound 69, (4S)-1'-[7-(3-chloro-2-methyl-4-pyridyl)-6-methyl-pyrazolo[1,5-a]pyrazin-4-yl]spiro[4,6-dihydrocyclopenta[d]thiazole-5,4'-piperidine]-4-amine hydrochloride] | 10 nM |
